Assay results taken from paper PMC8370248, “Key Metabolic Enzymes Involved in Remdesivir Activation in Human Lung Cells” (Antimicrobial Agents and Chemotherapy, 2021).
Read-outs that look alike come from different tables or passages of the source.

Key:
HINT1 [1] = target: T1, HINT1 (Homo sapiens, UniProt P49773); test: HINT1-catalyzed hydrolysis of RDV MetX, inhibition; format: biochemical
T1 construct: purchased Abcam (Cambridge, MA)
Method: Following protein precipitation and centrifugation, 150 μl of supernatants were dried down and reconstituted with 250 μl water. All samples were analyzed by LC-MS, and PAR values were used for quantification. Disappearance of the MetX substrate was monitored over the incubation time period. Three experiments were conducted with two replicates each experiment, and data are reported as averages from three experiments.
(§1) Data were analyzed using GraphPad Prism 8.0. IC50 values were calculated by nonlinear regression analysis using the following sigmoidal dose-response (variable slope) equation (four-parameter logistic equation). Y=100/[1+10^(logIC50−X)×HillSlope] where X is the log of the concentration of the test compound, and Y is the response. The IC50 values were calculated as an average of three or more independent experiments.

NHBE cells = test: Effect of hydrolase inhibitors on GS-443902 formation from RDV in NHBE cells; format: cell-based, human; conditions: coincubation with 1 μM RDV, 24 h, three donors
Method: Cells were harvested at 24 h after compound addition, and the GS-443902 levels were assessed by an LC-MS method.
NHBE cells (5 × 10^5) in 2 ml of BEGM media were seeded in each well of a 6-well plate and incubated overnight at 37°C and 5% CO2. […] Twenty-four hours post-compound addition, the cells were washed 3× with 1 ml of cold 1× Tris-HCl (pH 7.0)-buffered saline, and cells were harvested in 500 μl dry ice-cold extraction buffer (0.1% potassium hydroxide and 67 mM ethylenediamine tetra-acetic acid in 70% methanol, containing 0.5 μM chloro-ATP as internal standard) and transferred to a deep-well block on dry ice. The deep-well block was stored at −80°C until processing. At the time of harvest, two untreated wells for each donor were trypsinized, and the cell counts were determined. All compound combinations were tested in duplicate in cells from three donors.
Each NHBE sample was treated with 500 μl of dry ice-cold extraction buffer (0.1% potassium hydroxide and 67 mM ethylenediamine tetra-acetic acid in 70% methanol, containing 0.5 μM chloro-ATP as internal standard). The above solution was vortexed for 5 min and then centrifuged at 20,000 × g for 10 min. The supernatant was transferred to a clean 96-deep-well plate and then dried on an evaporator. Once dry, samples were reconstituted with 80 μl of 1 mM ammonium phosphate buffer (pH 7) and transferred to a 96-short-well plate for analysis. An aliquot of 10 μl was injected into a Sciex QTrap 6500+ liquid chromatography-tandem mass spectrometry (LC-MS/MS) system run under the multiple reaction monitoring (MRM) operation mode.
Standard calibration curves for NHBE were constructed based on pmol of compound per sample. […] Using the calibration curve, the amount of the metabolites was quantified in each sample, and the intracellular concentrations (pmol/million cells) were determined by dividing the value by the cell number in the sample.

CatA [2] = target: T2, CatA (Homo sapiens, UniProt P10619); test: CatA-catalyzed hydrolysis of fluorogenic peptide substrate, inhibition; format: biochemical; set-up: purchased R&D Systems (Minneapolis, MN)
T2 sequence (P10619 29-326 limits assumed): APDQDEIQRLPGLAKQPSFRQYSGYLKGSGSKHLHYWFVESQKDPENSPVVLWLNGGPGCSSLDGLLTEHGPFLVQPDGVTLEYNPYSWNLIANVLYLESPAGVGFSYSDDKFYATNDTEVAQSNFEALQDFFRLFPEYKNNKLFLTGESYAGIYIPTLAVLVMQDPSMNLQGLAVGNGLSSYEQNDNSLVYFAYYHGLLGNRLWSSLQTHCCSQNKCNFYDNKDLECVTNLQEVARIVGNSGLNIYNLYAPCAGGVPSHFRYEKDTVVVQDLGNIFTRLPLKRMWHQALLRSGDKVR
T2 sequence (P10619 327-480 limits assumed): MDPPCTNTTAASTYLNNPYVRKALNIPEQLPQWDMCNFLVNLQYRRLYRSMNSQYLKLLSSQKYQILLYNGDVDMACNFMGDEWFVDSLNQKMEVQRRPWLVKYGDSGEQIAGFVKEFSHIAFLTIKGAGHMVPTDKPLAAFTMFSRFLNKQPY
Method: The reaction was studied under both pH 6.5 (to match CatA-catalyzed RDV reaction conditions with minimal acidic hydrolysis) and pH 5.5 (to mimic acidic lysosomal environment). CatA was initially activated following the manufacturer’s protocol. […] Threefold dilutions of compounds were prepared in 100% DMSO. The final DMSO concentration was kept constant at 1% (vol/vol). […] The slopes of the progress curves were used to measure reaction rates. Reaction rates were plotted as a function of inhibitor concentration, and the data were fit with a four-parameter logistic fit using GraphPad Prism software to yield IC50 values.
as §1

CES1b = target: T3, CES1b (Homo sapiens, UniProt P23141); test: CES1b-catalyzed hydrolysis of 4-NPA, inhibition by inhibitors; format: biochemical
T3 construct: purchased Corning Incorporated (Corning, NY); host or cells: baculovirus-infected insect cells (microsomal fraction, Supersomes)
T3 sequence (P23141 18-567): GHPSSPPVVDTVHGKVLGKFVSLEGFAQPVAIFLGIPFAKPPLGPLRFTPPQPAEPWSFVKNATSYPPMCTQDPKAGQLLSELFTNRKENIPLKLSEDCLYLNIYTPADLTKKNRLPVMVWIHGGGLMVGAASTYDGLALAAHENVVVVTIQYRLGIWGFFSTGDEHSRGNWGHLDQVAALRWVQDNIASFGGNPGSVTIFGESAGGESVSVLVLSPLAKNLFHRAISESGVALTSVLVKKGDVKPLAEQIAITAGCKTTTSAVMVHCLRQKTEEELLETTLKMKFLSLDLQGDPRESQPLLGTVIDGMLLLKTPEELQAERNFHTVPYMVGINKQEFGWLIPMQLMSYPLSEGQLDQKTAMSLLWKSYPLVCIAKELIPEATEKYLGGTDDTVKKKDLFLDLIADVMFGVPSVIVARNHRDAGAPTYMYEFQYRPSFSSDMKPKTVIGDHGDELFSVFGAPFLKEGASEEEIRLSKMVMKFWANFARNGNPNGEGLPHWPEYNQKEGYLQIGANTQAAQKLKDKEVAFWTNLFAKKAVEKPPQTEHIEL
Method: (§2) Threefold dilutions of compounds were prepared in 100% DMSO. Compounds (100 μM to 0.005 μM), CES isozymes, and substrate 4-NPA were mixed in a 100-μl reaction volume consisting of 100 mM potassium phosphate buffer (pH 7.4) and 1% DMSO. […] The slopes of the progress curves were used to calculate reaction rates. Reaction rates were plotted as a function of inhibitor concentration, and the data were fit with a four-parameter logistic model using GraphPad Prism software (version 8; La Jolla, CA) to yield IC50 values.
as §1

CES1c = target: T4, CES1c (Homo sapiens, UniProt P23141); test: CES1c-catalyzed hydrolysis of 4-NPA, inhibition by inhibitors; format: biochemical
T4 construct: purchased Corning Incorporated (Corning, NY); host or cells: baculovirus-infected insect cells (microsomal fraction, Supersomes)
T4 sequence (P23141 18-566 isoform P23141-3 limits assumed): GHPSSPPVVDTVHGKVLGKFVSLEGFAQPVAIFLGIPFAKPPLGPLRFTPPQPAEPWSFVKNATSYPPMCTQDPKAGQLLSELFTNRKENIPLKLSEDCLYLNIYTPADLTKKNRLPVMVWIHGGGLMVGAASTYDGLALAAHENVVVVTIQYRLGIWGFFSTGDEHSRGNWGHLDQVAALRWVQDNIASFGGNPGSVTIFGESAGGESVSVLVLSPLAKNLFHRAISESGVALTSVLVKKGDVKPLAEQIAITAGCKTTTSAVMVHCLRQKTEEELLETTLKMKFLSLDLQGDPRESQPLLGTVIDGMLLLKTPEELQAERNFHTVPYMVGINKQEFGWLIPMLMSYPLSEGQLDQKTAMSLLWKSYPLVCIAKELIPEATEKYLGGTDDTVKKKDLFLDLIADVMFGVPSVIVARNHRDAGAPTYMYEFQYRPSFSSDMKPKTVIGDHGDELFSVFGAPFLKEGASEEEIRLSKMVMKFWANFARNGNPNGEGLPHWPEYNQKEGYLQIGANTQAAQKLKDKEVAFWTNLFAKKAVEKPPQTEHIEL
Method: as §2, §1

CES1 = system: CES1; set-up: method as in PMID 20801890, PMID 25870059; conditions: published data ref 7, 9; cited from earlier work
SARS-CoV-2 = test: microbe, parasite or virus in culture; format: cell-based; conditions: compound alone (plus DMSO), A549-hACE2 cells, 48 h
[3] = A549-hACE2 cytotoxicity analysis; conditions: human, A549-hACE2 cells
Method: The cytotoxicity of compounds was determined in A549-hACE2 cells in the following manner. A549-hACE2 cells (12,000 cells per well in medium containing 2% FBS) were plated into a black opaque 96-well plate (Corning). The next day, 3-fold serial dilutions of compounds were prepared in DMSO in a manner to normalize the DMSO concentration among all cell culture wells. The compounds were further diluted 500-fold in the culture medium containing 2% FBS. Spent medium from overnight incubation was aspirated, 100 μl of diluted compound solutions were added to each well, and cultures were returned to 37°C with 5% CO2. […] Luciferase signals were measured using an Envision microplate reader. The relative luciferase signals were calculated by normalizing the luciferase signals of the compound-treated groups to that of the DMSO-treated groups (set as 100%). The relative luciferase signal (y axis) versus the compound concentration (x axis) was plotted in software GraphPad Prism 8 (version 8). […] Three independent experiments were performed with technical duplicates.

CES2 = target: T5, CES2 (Homo sapiens, UniProt O00748); test: CES2-catalyzed hydrolysis of 4-NPA, inhibition by inhibitors; format: biochemical
T5 construct: purchased Corning Incorporated (Corning, NY); host or cells: baculovirus-infected insect cells (microsomal fraction, Supersomes)
T5 sequence (O00748 27-559): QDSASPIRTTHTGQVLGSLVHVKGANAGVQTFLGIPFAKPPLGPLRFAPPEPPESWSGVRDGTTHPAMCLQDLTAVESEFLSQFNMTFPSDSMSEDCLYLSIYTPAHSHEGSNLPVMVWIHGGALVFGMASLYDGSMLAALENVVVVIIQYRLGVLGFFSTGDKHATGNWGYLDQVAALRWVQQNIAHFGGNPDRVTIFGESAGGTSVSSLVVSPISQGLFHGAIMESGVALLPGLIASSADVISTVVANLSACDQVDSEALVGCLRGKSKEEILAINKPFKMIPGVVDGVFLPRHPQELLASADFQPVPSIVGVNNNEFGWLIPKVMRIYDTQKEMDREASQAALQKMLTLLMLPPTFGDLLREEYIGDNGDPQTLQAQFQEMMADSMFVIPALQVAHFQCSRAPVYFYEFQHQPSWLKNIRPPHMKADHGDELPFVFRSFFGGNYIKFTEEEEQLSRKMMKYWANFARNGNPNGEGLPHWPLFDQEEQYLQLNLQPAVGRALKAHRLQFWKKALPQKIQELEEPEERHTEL
Method: as §2, §1

CatA [4] = system: CatA; set-up: method as in PMID 20801890, PMID 25870059; conditions: published data ref 7, 9; cited from earlier work
[5] = system: cellular activation of sofosbuvir (SOF); test: Effect of HINT1 inhibitors on cellular activation of sofosbuvir; format: cell-based; conditions: data not shown
HINT1 [6] = target: HINT1; set-up: method as in PMID 31503445; conditions: previously reported by Shah et al. ref 17; read-out: dissociation constant [Kd], HINT1; cited from earlier work
[7] = substrate RDV MetX, read-out: Inhibition (IC50) of enzyme activities, HINT1
[8] = pH 5.5, fluorogenic peptide substrate, read-out: Inhibition (IC50) of enzyme activities, CatA pH 5.5
[9] = pH 6.5, fluorogenic peptide substrate, read-out: Inhibition (IC50) of enzyme activities, CatA pH 6.5
[10] = substrate 4-NPA, read-out: Inhibition (IC50) of enzyme activities, CES1b
[11] = substrate 4-NPA, read-out: Inhibition (IC50) of enzyme activities, CES1c

T1 sequence (P49773 whole entry): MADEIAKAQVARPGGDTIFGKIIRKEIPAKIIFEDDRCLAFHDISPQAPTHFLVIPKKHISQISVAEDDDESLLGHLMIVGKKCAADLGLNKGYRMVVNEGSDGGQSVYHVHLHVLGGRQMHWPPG

SMILES | IC50 (HINT1 [1]; [7]) [µM] | Effect on GS-443902 formation in NHBE cells (NHBE cells) | IC50 (CatA [2]; [8]) [µM] | IC50 (CatA [2]; [9]) [µM] | IC50 (CES1b; [10]) [µM] | IC50 (CES1c; [11]) [µM] | IC50 (CES1) [µM] | EC50 (SARS-CoV-2) [µM] | CC50 at 48 h [3] [µM] | IC50 (CES2) [µM] | IC50 (HINT1 [1]) [µM] | IC50 (CatA [2]; IC50 values range for CatA, range over pH 6.5 and pH 5.5) [µM] | IC50 (CatA [2]; Inhibition (IC50) of enzyme activities, CatA pH 5.5, pH 5.5, fluorogenic peptide substrate) [µM] | IC50 (CatA [2]; Inhibition (IC50) of enzyme activities, CatA pH 6.5, pH 6.5, fluorogenic peptide substrate) [µM] | IC50 (CES1b) [µM] | IC50 (CES1c) [µM] | IC50 (CatA [4]) [µM] | IC50 (CES2; substrate 4-NPA, read-out: Inhibition (IC50) of enzyme activities, CES2) [µM] | Effect on cellular activation of sofosbuvir (SOF) [5] | Kd (HINT1 [6]) [µM]
O=[N+]([O-])c1ccc(OP(=O)(O)Oc2ccc([N+](=O)[O-])cc2)cc1 [BNPP, bis(4-nitrophenyl)phosphate] | > 100 | did not cause a significant change in GS-443902 formation | > 100 | > 100 | 0.75 ± 0.12 | 14 ± 5.6 | 0.11 |  |  |  |  |  |  |  |  |  |  |  |  | 
CCC[C@H](NC(=O)[C@@H]1[C@H]2CCC[C@H]2CN1C(=O)[C@@H](NC(=O)[C@@H](NC(=O)c1cnccn1)C1CCCCC1)C(C)(C)C)C(=O)C(=O)NC1CC1 [Telaprevir] |  | dose-dependent inhibition of GS-443902 formation |  |  |  |  |  | > 50 | 29.2 | > 100 | > 100 | 0.078 to 0.34 | 0.34 ± 0.06 | 0.078 ± 0.009 | > 100 | > 100 | 0.21 |  |  | 
Nc1nc2c(ncn2[C@@H]2O[C@H](COC(=O)NCCc3c[nH]c4ccccc34)[C@@H](O)[C@H]2O)c(=O)[nH]1 [TrpGc] | 1.5 ± 0.5 | neither of them significantly altered | > 100 | > 100 | > 100 | > 100 |  |  |  |  |  |  |  |  |  |  |  | > 100 | neither TrpGc nor compound 7 | 3.65
